According to patent publication US20240407363A1 (priority 2021, published 2024):
Entries after “also recorded” stand apart in the source; their conditions may differ.

Key:
[1] = test system: X. perforans strain GEV-485; assay: In vitro antibacterial activity at different time points (viable colony counts); assay type: cell-based
Experimental: X. perforans strain GEV-485, a copper-resistant strain, was used in this study to evaluate the antibacterial activity of Hx. Working cultures of GEV-485 were retrieved from −80° C. storage vials containing bacterial suspensions in 30% glycerol (v/v). Bacterial cells were taken from the storage, streaked on nutrient agar (NA; Difco™ Sparks, MD) plates and incubated for 48 h at 28° C. and single colonies were picked and streaked on NA plates to ensure bacterial purity for further cultures. NA amended with copper (II) sulfate pentahydrate (CuSO4·5H2O) (Fisher Scientific-Hampton, NH) at 20 ppm, was used as copper tolerance selective agent. To prepare the bacterial inoculum, a single bacterial colony was streaked on NA and incubated for 24 h at 28° C. From those plates, loops of bacterial cells were collected and resuspended in SDW amended with 0.01 M MgSO4. The bacterial concentration was adjusted to ˜5.0×10^8 colony-forming units (CFU)/mL based on an optical density (OD) of 0.3 at 600 nm. The in vitro studies were conducted to determine the minimum inhibitory concentration (MIC), minimum bactericidal concentration (MBC), and the antibacterial activity at different time points.
For the antibacterial activity study of Hx at different time points, the bacterial suspension was prepared as described above. […] After incubation, total viable colonies for each tube were counted. […]

Xanthomonas perforans = assay: Field trials on hexanoic acid, bacterial spot of tomato (cv. Red bounty); assay type: in vivo; conditions: for AUDPC / BS last rating of bacterial spot severity / YIELD: cv. Red bounty, ManKocide 2.1 mg/ml foliar spray, hexanoic acid 0.5 mg/ml drench (50 ml/plant)
Experimental: Table 3 notes: Data from 2 repeated field experiments: BS1/BS2=bacterial disease severity in Exp. 1/Exp. 2; AUDPC1/AUDPC2=area under the disease progress curve in Exp. 1/Exp. 2; YIELD 1/YIELD 2=fruit yield (Kg/plant) in Exp/1/Exp.2; KOCIDER=Kocide® 3000 (Cu bactericide) at 1.75 lb/acre (=2.1 mg/mL) by sprays; MANKO=Mankocide® (Cu+mancozeb) at 1.75 lb/acre by foliar spray; HEXANO=hexanoic acid at 0.5 mg/mL (=500 mg/L) by root drench weekly for a total of 8 weeks.
It is noted regarding the table above that: (1) data in this table were from 2 repeated field experiments, whereas those in FIG. 9 were from a greenhouse preliminary test; and (2) in the field experiments, Hx at 500 mg/L was weekly applied as soil drench for a total of 8 weeks. In the greenhouse test (FIG. 9), Hx at 512 mg/L was applied only one time as soil drench at 1, 3, or 7 days prior to the bacterial inoculation, respectively.
Tomato seedlings were transplanted in fall for the first trial (trial 1) and spring for the second trial (trial 2). Treatments were started about two weeks after transplanting following weekly applications for a total of eight weeks. Tomato plants were inoculated with the pathogen Xanthomonas perforans (1-5×10^6 cfu/ml) the following day in the afternoon after the third treatment. Disease severity was rated weekly when bacterial spot symptoms were observed, and area under the disease progress curve (AUDPC) was calculated. Tomato fruit were harvested two to three times for each trial and graded according to the USDA standard. Total fruit yield in each treatment and the untreated control (CK) was subjected to statistical analysis using SAS (version 9.2, SAS Institute Inc., Cary, NC, USA). Disease severity of last rating and AUDPC from each trial were analyzed and presented.
Hexanoic acid at 0.5 mg/ml was drenched (50 ml/plant) to the base of each plant. This chemical was evaluated in two independent trials. Tomato cultivar was ‘Red bounty’.

X. perforans GEV-485 = assay: Greenhouse in planta experiments, hexanoic acid soil drench, tomato bacterial spot ('Bonnie Best'); assay type: in vivo
Experimental: Hexanoic acid (Hx) (>99%, Sigma Aldrich) was tested for its effect on the management of bacterial leaf spot of tomato. Stock solutions of Hx (1.0×10^4 mg/L) were prepared with sterile distilled water (SDW) and stored at 4° C. for further dilutions. Copper treatment suspensions were prepared using Kocide® 3000 (DuPont, Wilmington DE) that contains 30% metallic Cu in the form of copper hydroxide [Cu(OH)2]. For greenhouse experiments, Kocide® 3000 at the rate of 2.1 g/L and Penncozeb 75DF (United Phosphorus Inc., King of Prussia, PA) at the rate of 1.2 g/L in SDW were prepared.
The plants were then moved to a growth chamber with temperature at 28° C., 12 h photoperiod and 80% relative humidity. Fifty mL of Hx at the tested rates were applied to 3-4 weeks old plants by soil drench, 4 and 2 days prior to bacterial inoculation to prime the plants and induce basal plant defense. Kocide® 3000 and a mixture of Kocide® 3000+Penncozeb® were sprayed on the tomato plants until runoff and allowed to air dry for 4 h before bacterial inoculation. Three plants were sprayed with SDW only, as a negative control. […] Disease severity and phytotoxicity were evaluated every other day using the Horsfall-Barratt scale (Horsfall and Barratt, 1945), starting from 3 days up to 20 days post inoculation. […]

[2] = 0.5 mg/ml applied as root drench (50 ml/plant)
[3] = Experiment 1, Kocide 3000 1.75 lb/acre (=2.1 mg/mL) sprays, Mankocide 1.75 lb/acre foliar spray, hexanoic acid 0.5 mg/mL root drench weekly for 8 weeks
[4] = Experiment 2, Kocide 3000 1.75 lb/acre (=2.1 mg/mL) sprays, Mankocide 1.75 lb/acre foliar spray, hexanoic acid 0.5 mg/mL root drench weekly for 8 weeks

Q: How did the “colony growth after treatment” value ([1]; at 256 mg/L or higher concentrations, after 4 hours of treatment) turn out when `CCCCCC(=O)O` [Hexanoic acid, hexanoic acid] was run?
A: The value was “no colonies grew”.

Q: And the “bactericidal effect over time” value ([1]; higher concentrations of hexanoic acid)?
A: Its value is “bactericidal effects within an hour”.

Q: What about the “effect on disease reduction compared to ManKocide at the label rate of 2.1 mg/ml” value (Xanthomonas perforans; [2]) of the same compound?
A: The value was “even better than ManKocide®”.

Q: What about the “marketable tomato fruit yield compared to controls” value (Xanthomonas perforans; [2]) of the same compound?
A: Its value is “greater than the untreated control (CK) and ManKocide® in one of the two independent trials”.

Q: And the “bacterial spot disease severity and AUDPC compared to the untreated control (CK)” value (Xanthomonas perforans; 0.5 mg/ml applied as root drench (50 ml/plant), Homestead, FL 2020-2021)?
A: Its value is “significantly (P<0.05) reduced bacterial spot disease severity at the last rating and the overall disease progress”.

Q: And the “AUDPC1 area under the disease progress curve” value (Xanthomonas perforans; [3])?
A: Its value is 95.93 c.

Q: What about the “BS1 bacterial disease severity” value (Xanthomonas perforans; [3]) of the same compound?
A: Its value is 10.8 d %.

Q: And the YIELD1 fruit yield (Xanthomonas perforans; [3])?
A: The YIELD1 fruit yield was 8.83 a Kg/plant.

Q: What about the “AUDPC2 area under the disease progress curve” value (Xanthomonas perforans; [4]) of the same compound?
A: Its value is 390.1 c.

Q: And the “BS2 bacterial disease severity” value (Xanthomonas perforans; [4])?
A: The value was 41.3 c %.

Q: What about the YIELD2 fruit yield (Xanthomonas perforans; [4]) of the same compound?
A: Its YIELD2 fruit yield is 2.76 a Kg/plant.

Q: What about the AUDPC (Xanthomonas perforans; Trial 1) of the same compound?
A: Its AUDPC is 95.9 c.

Q: And the “BS last rating of bacterial spot severity” value (Xanthomonas perforans; Trial 1)?
A: The value was 10.8 c %.

Q: And the YIELD (Xanthomonas perforans; Trial 1)?
A: The YIELD was 8.83 a kg/plant.

Q: What about the AUDPC (Xanthomonas perforans; Trial 2) of the same compound?
A: The AUDPC was 390.1 c.

Q: And the “BS last rating of bacterial spot severity” value (Xanthomonas perforans; Trial 2)?
A: The value was 41.3 b %.

Q: And the YIELD (Xanthomonas perforans; Trial 2)?
A: Its YIELD is 2.76 a kg/plant.

Q: What about the “bacterial spot disease (preliminary AUDPC, FIG. 9) compared to the control (UTC)” value (X. perforans GEV-485; 512 mg/L applied only once as soil drench 1, 3, and 7 days prior to the bacterial inoculation) of the same compound?
A: The value was “did not appear to significantly reduce the bacterial spot disease”.

Q: And the “disease severity (AUDPC, FIG. 10) compared to the control (UTC)” value (X. perforans GEV-485; different treatment concentrations, application two days prior to the bacterial inoculation, two-week rating period)?
A: The value was “significantly (P<0.05) lower disease severity; also recorded: statistically significant (p<0.05) lower disease severity”.
